The record followed here is PMC7397336, “5-(4H)-Oxazolones and Their Benzamides as Potential Bioactive Small Molecules” (Molecules, 2020).

Where “and” joins values, the source holds several entries; their conditions need not be identical. Equal values may be shown once. Marks after values point to notes of the source that are not given here.

The term inhibition denotes the relative decrease from the control value, in per cent. By IC50 is commonly meant the concentration at which inhibition is half-maximal. For orientation: melting point means the temperature of the solid-liquid transition.

Data set [1] deals with acetic acid induced writhing. As to the kind of experiment: Anti-nociception, acetic acid writhing test. The data set is classed as in vivo, Fisher 344 rats. The note with it: 0.0057 mmol/kg body weight i.p., 0.6% acetic acid. From the text:
The animals (Fisher 344 rats), which have been bred in our laboratory, were housed under standard conditions and received a diet of commercial food pellets and water ad libitum during the maintenance but they were entirely fasted during the experiment period. Both sexes were used while females pregnant were excluded. Each group was composed of 6–15 animals. Our studies were in accordance with recognized guidelines on animal experimentation (guidelines for the care and use of laboratory animals published by the Greek Government 160/1991, based on EU regulations 86/609). Rats were kept in the Centre of the School of Veterinary Medicine (EL54 BIO42), Aristotle University of Thessaloniki, which is registered by the official state veterinary authorities (presidential degree 56/2013, in harmonization with the European Directive 2010/63/EEC). The experimental protocols were approved by the Animal Ethics Committee of the Prefecture of Central Macedonia (no. 270079/2500). In order to study the analgesic activity of the tested compound, pain is provoked with acetic acid. Three groups for each compound were used with five animals per group. We followed our previous presented method. After treatment with the tested compounds (0.0057 mmol/kg body weight; intraperitoneally) in group 1, 2nd group was used as a positive control (aspirin; 0.0057 mmol/kg body weight i.p.) and another group (3rd) served as the control in which saline was administered (negative control). After 30 min, 0.6% acetic acid (1 mL/kg body weight) was injected i.p. The number of writhes was recorded for each animal every 5 min during a subsequent 30 min period.
Background: In writhing tests, fewer writhes than in controls are read as antinociception.

For another data set, the target named is T1, trypsin (Bos taurus, UniProt P00760).
T1 sequence (P00760 24-246): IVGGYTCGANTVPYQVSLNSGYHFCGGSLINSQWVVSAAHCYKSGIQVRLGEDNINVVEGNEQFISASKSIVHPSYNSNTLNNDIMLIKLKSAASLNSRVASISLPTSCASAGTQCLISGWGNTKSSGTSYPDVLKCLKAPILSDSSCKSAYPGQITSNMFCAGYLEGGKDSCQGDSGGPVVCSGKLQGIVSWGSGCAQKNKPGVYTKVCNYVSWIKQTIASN
The data set can be described thus: Inhibition of trypsin induced proteolysis. The class given is biochemical. As for the experimental part: (§1) Each in vitro experiment was performed at least in triplicate and the standard deviation of absorbance was less than 10% of the mean. For the in vitro assays, a stock solution (1% DMSO in the appropriate buffer with the tested compound diluted under sonification) was prepared from which several dilutions were made with the appropriate buffer.
The tested compounds (10 µL) were dissolved in DMSO (final concentration 100 µM), with phosphate buffer (pH = 7.6) to give 0.005–0.1 mM solutions, and 100 µL trypsin (1 mg/10 mL) were preincubated at 37 °C for 30 min. Then, 200 µL of albumin (6 mg in 3 mL of distilled water) was added and incubated again at 37 °C for 24 h. After the incubation 1 mL trichloroacetic acid (5% w/w) was added to terminate the reaction. The mixture is centrifugated, the water layer is collected and monitored at 280 nm.

The target of the next data set is T2, soybean lipoxygenase (Glycine max, UniProt P08170).
T2 construct: purchased Sigma Chemical, Co. (St. Louis, MO, USA)
T2 sequence (P08170 1-839): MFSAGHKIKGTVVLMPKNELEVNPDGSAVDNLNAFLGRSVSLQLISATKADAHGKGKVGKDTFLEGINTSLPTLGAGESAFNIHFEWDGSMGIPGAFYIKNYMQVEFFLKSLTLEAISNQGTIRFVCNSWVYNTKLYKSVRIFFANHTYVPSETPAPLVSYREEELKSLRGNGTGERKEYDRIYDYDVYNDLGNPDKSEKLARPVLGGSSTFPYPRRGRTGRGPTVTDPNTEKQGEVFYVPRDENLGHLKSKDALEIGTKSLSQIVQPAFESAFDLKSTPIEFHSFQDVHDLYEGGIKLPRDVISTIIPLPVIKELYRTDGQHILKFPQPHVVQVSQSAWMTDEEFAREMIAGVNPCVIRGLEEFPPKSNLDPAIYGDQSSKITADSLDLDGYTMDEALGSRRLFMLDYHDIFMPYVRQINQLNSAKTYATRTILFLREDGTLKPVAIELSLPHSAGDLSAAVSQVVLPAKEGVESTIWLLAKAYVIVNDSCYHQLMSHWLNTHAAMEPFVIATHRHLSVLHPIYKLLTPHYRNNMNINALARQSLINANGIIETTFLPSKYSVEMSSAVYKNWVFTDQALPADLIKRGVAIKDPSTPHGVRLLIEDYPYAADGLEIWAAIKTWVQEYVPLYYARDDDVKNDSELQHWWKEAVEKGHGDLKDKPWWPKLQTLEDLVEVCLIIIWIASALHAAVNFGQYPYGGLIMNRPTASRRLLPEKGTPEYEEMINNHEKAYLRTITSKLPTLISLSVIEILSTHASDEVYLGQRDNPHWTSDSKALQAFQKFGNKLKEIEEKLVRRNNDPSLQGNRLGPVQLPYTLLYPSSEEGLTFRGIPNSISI
As to the kind of experiment: Soybean lipoxygenase inhibition study. The class given is biochemical. As to conditions: for inhibition at 100 µM: read-out: LOX % inhibition 100 μM; for IC50: soybean lipoxygenase, sodium linoleate 0.1 mM, read-out: LOX IC50. The procedure: For the in vitro assays, a stock solution (1% DMSO in the appropriate buffer with the tested compound diluted under sonification) was prepared from which several dilutions were made with the appropriate buffer. DMSO solution of the tested compound (stock solutions 10 mM) was incubated with sodium linoleate (0.1 mM) and 0.2 mL of soybean lipoxygenase solution (1/9 × 10^−4 w/v in saline) at room temperature. The test follows our previous published methods. […] Several concentrations were used to determine the IC50.

A short description of data set [2]: Inhibition of linoleic acid lipid peroxidation (AAPH).
Excerpt: Azo compounds, like AAPH, generating free radicals through spontaneous thermal decomposition are useful for in vitro studies of free radical production. Production of conjugated diene hydroperoxide by oxidation of sodium linoleate in an aqueous solution is monitored at 234 nm. This assay can be used to follow oxidative changes and to understand the contribution of each tested compound. […] It seems that the presence of moiety Ar (Scheme 1) is mainly correlated with the antioxidant result. The nature of the heteroatom O/S in Ar substituent in the 5-membered oxazolone ring (compounds 2c and 2e) influences the biological response. The replacement of the thienyl group in 2c by a furyl group (2e) leads to a 31% decrease of the antioxidant ability.
as §1
The AAPH-induced oxidation of linoleic acid measures the ability of an antioxidant to prevent oxidation of linoleic acid sodium salt induced by alkylperoxyl radicals, generated from the water soluble azo compound 2,2′-azobis(2-amidinopropane) dihydrochloride (AAPH). The assay was performed according to our previous publications. Trolox was used as reference compound.

Data set [3] has as its system carrageenin-induced rat paw edema. The data set can be described thus: Inhibition of the carrageenin-induced rat paw edema. The data set is classed as in vivo, Fisher 344 rats. The note with it: 0.0057 mmol/kg body weight i.p., 3.5 h after carrageenin. As for the experimental part: For the estimation of anti-inflammatory potential of the tested compounds the rat carrageenin induced paw edema assay was employed as a model for acute inflammation. Indomethacin, as a reference drug, and our compounds were administered intraperitoneally in order to ensure systemic response via fast bioavailability, while carrageenin’s intradermal administration, as inflammatory agent, aimed to local response. The development of the edema induced by carrageenin has been described as a biphasic event. The early phase of the inflammatory response, lasting 0.5–1.5 h, is chiefly mediated by histamine and serotonin release inducing hyperalgesia, swelling and redness, while the later phase, lasting 3–6 h, is sustained presumably by prostaglandin release. This model reliably predicts the anti-inflammatory efficacy of the NSAIDs during the second phase, since non-steroidal anti-inflammatory drugs (NSAIDs) present weak activity in the first phase. Therefore, using this protocol we could evaluate our compounds as potential anti-inflammatory agents, as a result of inhibition of prostaglandin amplification.
The animals (Fisher 344 rats), which have been bred in our laboratory, were housed under standard conditions and received a diet of commercial food pellets and water ad libitum during the maintenance but they were entirely fasted during the experiment period. Both sexes were used while females pregnant were excluded. Each group was composed of 6–15 animals. Our studies were in accordance with recognized guidelines on animal experimentation (guidelines for the care and use of laboratory animals published by the Greek Government 160/1991, based on EU regulations 86/609). […]
Edema was induced in the right hind paw of the rats by the intradermal injection of 0.1 mL 2% carrageenin in water we followed our previous published method. […] The change in paw weight was compared with that in control animals (treated with water) and expressed as a percent inhibition of the edema CPE % values. […]
For orientation: The carrageenan paw model is a standard test of acute inflammation.

The next data set addresses mushroom tyrosinase (Agaricus bisporus, UniProt C7FF04). The data set can be described thus: Tyrosinase inhibition assay. The class given is biochemical. The note with it: L-Dopa substrate, read-out: ΤyrI% 100 μM (inhibition of mushroom tyrosinase). The procedure: For the in vitro assays, a stock solution (1% DMSO in the appropriate buffer with the tested compound diluted under sonification) was prepared from which several dilutions were made with the appropriate buffer.

Chain of mushroom tyrosinase (G1K3P4 entry or part of it): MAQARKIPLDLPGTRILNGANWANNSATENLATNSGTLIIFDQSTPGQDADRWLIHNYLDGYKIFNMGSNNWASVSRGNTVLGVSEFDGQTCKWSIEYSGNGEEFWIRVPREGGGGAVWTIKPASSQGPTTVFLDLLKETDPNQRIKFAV
Chain of mushroom tyrosinase (C7FF04 1-392): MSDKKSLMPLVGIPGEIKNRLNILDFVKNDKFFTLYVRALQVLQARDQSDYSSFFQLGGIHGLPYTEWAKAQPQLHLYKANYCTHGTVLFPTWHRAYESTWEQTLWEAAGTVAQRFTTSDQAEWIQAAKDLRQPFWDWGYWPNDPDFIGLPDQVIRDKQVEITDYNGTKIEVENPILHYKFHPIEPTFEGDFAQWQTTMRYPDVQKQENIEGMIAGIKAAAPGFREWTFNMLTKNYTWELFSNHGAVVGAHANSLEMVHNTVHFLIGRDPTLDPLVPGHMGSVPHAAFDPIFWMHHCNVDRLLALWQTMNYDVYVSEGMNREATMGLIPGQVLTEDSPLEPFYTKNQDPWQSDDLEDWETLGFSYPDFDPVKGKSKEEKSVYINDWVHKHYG

For the compound `CC(=O)Oc1ccccc1C(=O)O` [Aspirin, aspirin, reference compound], in data set [1], the “Writhing Inhibition (%)” value worked out at 77%.
As for `O=C(N/C(=C\c1ccccc1)C(=O)N1CCOCC1)c1ccccc1` [Compound 3a, (Z)-N-(3-morpholino-3-oxo-1-phenylprop-1-en-2-yl)benzamide], the melting point was in the range of 135 to 138 °C. At trypsin, the “Iptr% 10 µM (% trypsin inhibition)” value is listed as “no”. On soybean lipoxygenase, the inhibition at 100 µM was less than 50% and the IC50 is 100 µM. Moreover, in data set [2], the “AAPH% 100 µM (anti-lipid peroxidation)” value stood at 69%.
`O=C(N/C(=C\c1ccccc1)C(=O)N1CCN(C(=O)/C(=C/c2ccccc2)NC(=O)c2ccccc2)CC1)c1ccccc1` [Compound 4a, N,N′-((1Z,1′Z)-piperazine-1,4-diylbis(3-oxo-1-phenylprop-1-ene-3,2-diyl))bisbenzamide] had a melting point of 265 to 268 °C. Also, the “CPE (%) inhibition of carrageenin-induced rat paw edema” value in data set [3] was 44 * % and 44%. In addition, the inhibition at 100 µM on soybean lipoxygenase came to 36%. In addition, in data set [2], the “AAPH% 100 µM (anti-lipid peroxidation)” value came to 82%. The inhibition at 100 µM on mushroom tyrosinase is 33%. Further, the “Writhing Inhibition (%)” value in data set [1] was 32%.
Consider `O=C(N/C(=C\c1cccs1)C(=O)N1CCN(C(=O)/C(=C/c2cccs2)NC(=O)c2ccccc2)CC1)c1ccccc1` [Compound 4c, N,N′-((1Z,1′Z)-piperazine-1,4-diylbis(3-oxo-1-(thiophen-2-yl)prop-1-ene-3,2-diyl))bisbenzamide], for which the melting point fell in the range of 292 to 294 °C. Also, in data set [3], the “CPE (%) inhibition of carrageenin-induced rat paw edema” value is 56 ** % and 56%. The IC50 on soybean lipoxygenase was 41 µM. The “AAPH% 100 µM (anti-lipid peroxidation)” value in data set [2] amounted to 93%. The inhibition at 100 µM on mushroom tyrosinase stood at 42%. Moreover, in data set [1], the “Writhing Inhibition (%)” value turned out to be 58%.
